Patent US3965257A, “Compositions and methods for the treatment of the symptoms of histamine induced allergic reactions” (Richardson-Merrell Inc., priority 1974, dated 1976)

What was measured:
[1] = test system: wheals induced by intradermal injections of histamine; assay: reduction by 50% of wheals induced by intradermal injections of histamine into guinea pigs; type: in vivo, guinea pig; conditions: Cavia porcellus, po, 1 h, orally administered one hour prior to the histamine injection, read-out: ED50 (amount required to reduce by 50% wheals induced by intradermal injections of histamine)
[2] = test system: aerosol antigen induced bronchial spasms and death; assay: prevention of aerosol antigen induced bronchial spasms and death in the guinea pig; type: in vivo; conditions: Cavia porcellus, po, orally, read-out: minimal amount required to prevent aerosol antigen induced bronchial spasms and death
Excerpt: The minimal amounts of the compounds of Examples 4,5,6 and 9 required to prevent aerosol antigen induced bronchial spasms and death in the quinea pig are respectively 1.0, 4.0, 1.0 and 4.0 milligrams per kilogram of body weight orally.

| Structure (SMILES) | ED50 [1] [mg/kg] | minimal effective dose [2] [mg/kg] |
| --- | --- | --- |
| Cl.O=C(CCCN1CCC(C(O)(c2ccccc2)c2ccccc2)CC1)c1cccs1 [Example 4, 4-[4-(α -Hydroxy-α -phenylbenzyl)piperidino] -1-(2-thienyl)-butan-1-one hydrochloride] | 3.1 | 1 |
| Cc1ccc(C(=O)CCCN2CCC(C(O)(c3ccccc3)c3ccccc3)CC2)cc1.Cl [Example 5, 4-[4-(α-Hydroxy-α-phenylbenzyl)piperidino] -4'-methylbutyrophenone hydrochloride] | 1.9 | 4 |
| CC(C)(C)c1ccc(C(=O)CCCN2CCC(C(O)(c3ccccc3)c3ccccc3)CC2)cc1.Cl [Example 6, 4'-tert-Butyl-4-[4-(α-hydroxy-α-phenylbenzyl)piperidino] butyrophenone hydrochloride] | 1.8 | 1 |
| O=C(CCCN1CCC(C(O)(c2ccccc2)c2ccccc2)CC1)c1ccc(N2CCCCC2)cc1 [Example 9, 4-[4-(α-Hydroxy-α-phenylbenzyl)piperidino]-4'-piperidinobutyrophenone] | 3.4 | 4 |
